Measured values taken from patent US10058538B2, “Compositions comprising substituted benzofuroquinolizine and α2-adrenergic agonists” (VETCARE OY, priority 2014, dated 2018).

Tests used:
beagle dogs = assay: Composite sedation score (0-20) in dogs, medetomidine with or without MK-467 IM, reversal with atipamezole (Example 2); type: in vivo, dog; settings: FIG. 3
Method: Atipamezole (100 μg/kg IM) was administered at 30 min (arrow).
The study was designed as a prospective, randomized, experimental cross-over study.
Each dog (n=7) was treated twice with a 14-days washout period: • Medetomidine (20 μg/kg) at 0 min, followed by Atipamezole (100 μg/kg) at 30 min • Medetomidine (20 μg/kg)+MK-467 (400 μg/kg) at 0 min, followed by Atipamezole (100 μg/kg) at 30 min
Medetomidine and MK-467 were mixed in the same syringe and administered intramuscularly.
Sedation was scored by a veterinarian blinded for treatment with the following score:
Composite Sedation Score (0-20)
• 0 Standing • 1 Standing but staggers • 2 Sternal head up • 3 Sternal head down • 4 Lateral head down 2. […] Position of the Eye (0-2) • 0 Middle • 2 Turned down 4. Jaw and Tongue Relaxation (0-4) • 0 Normal, opens the jaws but resists manipulation of the tongue • 1 Bites jaws together • 2 Opens the jaws but strong resistance when tongue is pulled • 3 Slight resistance when tongue is pulled • 4 No resistance 5. Resistance to Positioning in Lateral Recumbency (0-3) • 0 Normal • 1 Turns back to sternal position • 2 Some resistance but stays in lateral recumbency • 3 No resistance or the position is already lateral 6. […]

[1] = by reduction in heart rate and cardiac output after medetomidine administration; cited from earlier work
dogs [2] = settings: medetomidine 20 μg/kg IM or 10 μg/kg IV, compared with baseline values; cited from earlier work
dogs [3] = settings: dexmedetomidine 10 μg/kg IV, MK-467 250, 500 and 750 μg/kg, especially with higher doses; cited from earlier work

Cc1cccc(C(C)c2cnc[nH]2)c1C (racemic) [medetomidine, (RS)-4-[1-(2,3-dimethylphenyl)ethyl]-3H-imidazole]
resedation after atipamezole reversal (beagle dogs; medetomidine 20 μg/kg IM alone or with MK-467 400 μg/kg in the same syringe, atipamezole 100 μg/kg IM at 30 min): resedation seen
decrease of global Do2 (oxygen delivery) [1]: at least 50%
heart rate (HR), mixed-venous partial pressure of oxygen (Pvo(2)) and cardiac index (CI) (dogs [2]): significantly lower
mean arterial blood pressure (MAP), systemic vascular resistance (SVR) and oxygen extraction ratio (ER) (dogs [2]): significantly higher

CCC1(c2cnc[nH]2)Cc2ccccc2C1 [atipamezole]
reversal of medetomidine induced sedation (beagle dogs; atipamezole 100 μg/kg IM at 30 min after medetomidine 20 μg/kg IM alone or with MK-467 400 μg/kg): reversed

Cc1cccc([C@H](C)c2c[nH]cn2)c1C [dexmedetomidine, (S)-4-[1-(2,3-Dimethylphenyl)ethyl]-3H-imidazole]
BIS-values (bispectral index) (dogs [3]): decreased
